Experimental data: ChEMBL document CHEMBL5465560, “Selectivity Literature for EUbOPEN Chemogenomic Library” (2024)
Blank lines part the entries; values can stand above or below the molecule they belong to.

Assays:
[1] = test system: Proto-oncogene tyrosine-protein kinase receptor Ret (Homo sapiens), P07949 [G691S]; assay: (§1) Selectivity interaction (LanthaScreen Eu Kinase Binding Assay) EUB0001632a RET; settings: at 10 µM
[2] = test system: Proto-oncogene tyrosine-protein kinase receptor Ret (Homo sapiens), P07949 [M918T]; assay: as §1; settings: at 10 µM
Proto-oncogene tyrosine-protein kinase receptor Ret (Homo sapiens), P07949 [M918T], sequence (P07949 whole entry M918T): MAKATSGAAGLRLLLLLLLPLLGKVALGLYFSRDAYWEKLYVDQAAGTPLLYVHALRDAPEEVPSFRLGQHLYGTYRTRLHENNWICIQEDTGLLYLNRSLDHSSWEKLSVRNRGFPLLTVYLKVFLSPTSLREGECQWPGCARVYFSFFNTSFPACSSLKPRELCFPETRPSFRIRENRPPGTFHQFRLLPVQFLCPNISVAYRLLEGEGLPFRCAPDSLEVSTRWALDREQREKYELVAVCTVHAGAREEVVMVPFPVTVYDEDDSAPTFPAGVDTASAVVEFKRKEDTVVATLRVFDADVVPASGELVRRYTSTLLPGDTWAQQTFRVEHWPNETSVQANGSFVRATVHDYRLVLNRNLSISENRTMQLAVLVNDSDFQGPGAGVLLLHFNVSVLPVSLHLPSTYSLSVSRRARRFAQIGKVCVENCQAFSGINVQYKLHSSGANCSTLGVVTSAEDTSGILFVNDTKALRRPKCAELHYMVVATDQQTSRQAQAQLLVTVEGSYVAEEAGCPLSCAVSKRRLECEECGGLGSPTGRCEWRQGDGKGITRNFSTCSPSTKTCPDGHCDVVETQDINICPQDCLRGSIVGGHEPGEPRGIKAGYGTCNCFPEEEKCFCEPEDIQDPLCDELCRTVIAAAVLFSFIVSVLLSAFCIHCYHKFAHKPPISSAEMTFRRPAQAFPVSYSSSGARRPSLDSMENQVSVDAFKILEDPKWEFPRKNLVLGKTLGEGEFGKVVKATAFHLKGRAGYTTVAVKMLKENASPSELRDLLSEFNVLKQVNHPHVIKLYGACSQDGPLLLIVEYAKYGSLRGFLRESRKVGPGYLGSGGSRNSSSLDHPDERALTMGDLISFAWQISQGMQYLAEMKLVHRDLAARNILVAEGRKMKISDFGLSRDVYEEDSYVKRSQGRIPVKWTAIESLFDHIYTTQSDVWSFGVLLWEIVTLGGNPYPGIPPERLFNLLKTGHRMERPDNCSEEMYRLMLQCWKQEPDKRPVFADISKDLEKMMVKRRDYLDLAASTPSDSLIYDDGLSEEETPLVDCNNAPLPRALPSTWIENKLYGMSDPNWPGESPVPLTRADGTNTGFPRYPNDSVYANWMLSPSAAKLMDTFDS

[3] = test system: Proto-oncogene tyrosine-protein kinase receptor Ret (Homo sapiens), P07949 [V804M]; assay: as §1; settings: at 10 µM
Proto-oncogene tyrosine-protein kinase receptor Ret (Homo sapiens), P07949 [V804M], sequence (P07949 whole entry V804M): as the sequence (P07949 whole entry M918T) above, with V804M, T918M counted along it

[4] = target: Serine/threonine-protein kinase 32C (Homo sapiens) (UniProt Q86UX6); assay: Selectivity interaction (KinomeScan (DiscoverX)) EUB0000666a STK32C; settings: at 10 µM
Serine/threonine-protein kinase 32C (Homo sapiens), sequence (Q86UX6 whole entry): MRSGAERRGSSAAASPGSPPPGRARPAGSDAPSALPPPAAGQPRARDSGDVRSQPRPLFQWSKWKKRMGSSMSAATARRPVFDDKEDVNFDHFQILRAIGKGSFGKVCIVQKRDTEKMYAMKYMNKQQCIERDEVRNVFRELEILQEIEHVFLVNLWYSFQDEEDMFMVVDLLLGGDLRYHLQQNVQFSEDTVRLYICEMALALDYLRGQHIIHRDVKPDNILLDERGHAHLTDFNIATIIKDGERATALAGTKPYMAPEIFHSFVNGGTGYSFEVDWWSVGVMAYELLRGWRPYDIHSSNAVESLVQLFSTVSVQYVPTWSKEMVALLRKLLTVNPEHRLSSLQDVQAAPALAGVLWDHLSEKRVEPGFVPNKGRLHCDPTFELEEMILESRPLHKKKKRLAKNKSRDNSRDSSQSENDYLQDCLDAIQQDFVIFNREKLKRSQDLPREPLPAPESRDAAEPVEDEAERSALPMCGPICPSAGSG

[5] = target: Calcium/calmodulin-dependent protein kinase type II subunit beta (Homo sapiens) (UniProt Q13554); assay: Selectivity interaction (ActivX KiNativ screen (kinase selectivity in THP-1 cell lysates)) EUB0000639a CAMK2B; format: subcellular; settings: lysate, at 0.01 µM
Calcium/calmodulin-dependent protein kinase type II subunit beta (Homo sapiens), sequence (Q13554 whole entry): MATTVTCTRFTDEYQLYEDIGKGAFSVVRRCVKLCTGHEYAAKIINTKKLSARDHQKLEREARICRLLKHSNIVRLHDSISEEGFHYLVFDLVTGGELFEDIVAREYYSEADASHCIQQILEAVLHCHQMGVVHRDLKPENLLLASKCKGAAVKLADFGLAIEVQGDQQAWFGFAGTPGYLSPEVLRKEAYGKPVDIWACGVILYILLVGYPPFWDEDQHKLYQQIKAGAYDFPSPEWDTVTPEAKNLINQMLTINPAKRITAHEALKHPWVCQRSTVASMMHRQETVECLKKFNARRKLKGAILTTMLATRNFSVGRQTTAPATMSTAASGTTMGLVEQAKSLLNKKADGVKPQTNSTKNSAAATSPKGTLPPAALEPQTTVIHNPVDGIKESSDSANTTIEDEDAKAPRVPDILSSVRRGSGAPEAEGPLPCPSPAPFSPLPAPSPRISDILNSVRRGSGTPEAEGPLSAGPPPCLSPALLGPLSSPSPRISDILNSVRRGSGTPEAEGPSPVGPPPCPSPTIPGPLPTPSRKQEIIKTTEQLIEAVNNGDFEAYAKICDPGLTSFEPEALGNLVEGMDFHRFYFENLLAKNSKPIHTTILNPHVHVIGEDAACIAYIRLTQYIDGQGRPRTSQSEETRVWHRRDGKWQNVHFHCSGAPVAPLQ

[6] = target: T1, Cyclin-dependent kinase 11A (Homo sapiens) (UniProt Q9UQ88); assay: Selectivity interaction (KinomeScan (DiscoverX)) EUB0000655a CDK11A; settings: at 10 µM
T1 sequence (whole entry): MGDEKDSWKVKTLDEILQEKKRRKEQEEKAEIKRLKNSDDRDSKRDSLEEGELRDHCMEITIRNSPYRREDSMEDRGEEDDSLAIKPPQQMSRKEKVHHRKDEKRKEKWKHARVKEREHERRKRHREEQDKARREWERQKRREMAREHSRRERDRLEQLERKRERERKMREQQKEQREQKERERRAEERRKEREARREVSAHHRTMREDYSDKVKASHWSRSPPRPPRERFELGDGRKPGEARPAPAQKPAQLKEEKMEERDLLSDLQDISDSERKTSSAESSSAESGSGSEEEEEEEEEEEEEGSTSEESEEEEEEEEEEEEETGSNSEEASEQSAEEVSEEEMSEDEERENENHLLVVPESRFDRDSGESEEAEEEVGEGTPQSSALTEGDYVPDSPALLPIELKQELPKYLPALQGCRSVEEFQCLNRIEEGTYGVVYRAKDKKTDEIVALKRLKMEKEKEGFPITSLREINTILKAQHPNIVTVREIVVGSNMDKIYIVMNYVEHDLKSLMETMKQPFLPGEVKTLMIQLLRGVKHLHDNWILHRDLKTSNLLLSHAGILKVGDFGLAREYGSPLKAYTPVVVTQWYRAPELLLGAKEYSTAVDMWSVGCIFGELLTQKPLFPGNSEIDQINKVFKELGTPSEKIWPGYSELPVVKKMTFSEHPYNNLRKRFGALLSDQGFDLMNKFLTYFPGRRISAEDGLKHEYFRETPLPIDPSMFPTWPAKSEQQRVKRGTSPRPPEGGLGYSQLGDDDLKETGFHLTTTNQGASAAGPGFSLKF

[7] = target: T2, MAP/microtubule affinity-regulating kinase 4 (Homo sapiens) (UniProt Q96L34); settings: at 10 µM
T2 sequence (whole entry): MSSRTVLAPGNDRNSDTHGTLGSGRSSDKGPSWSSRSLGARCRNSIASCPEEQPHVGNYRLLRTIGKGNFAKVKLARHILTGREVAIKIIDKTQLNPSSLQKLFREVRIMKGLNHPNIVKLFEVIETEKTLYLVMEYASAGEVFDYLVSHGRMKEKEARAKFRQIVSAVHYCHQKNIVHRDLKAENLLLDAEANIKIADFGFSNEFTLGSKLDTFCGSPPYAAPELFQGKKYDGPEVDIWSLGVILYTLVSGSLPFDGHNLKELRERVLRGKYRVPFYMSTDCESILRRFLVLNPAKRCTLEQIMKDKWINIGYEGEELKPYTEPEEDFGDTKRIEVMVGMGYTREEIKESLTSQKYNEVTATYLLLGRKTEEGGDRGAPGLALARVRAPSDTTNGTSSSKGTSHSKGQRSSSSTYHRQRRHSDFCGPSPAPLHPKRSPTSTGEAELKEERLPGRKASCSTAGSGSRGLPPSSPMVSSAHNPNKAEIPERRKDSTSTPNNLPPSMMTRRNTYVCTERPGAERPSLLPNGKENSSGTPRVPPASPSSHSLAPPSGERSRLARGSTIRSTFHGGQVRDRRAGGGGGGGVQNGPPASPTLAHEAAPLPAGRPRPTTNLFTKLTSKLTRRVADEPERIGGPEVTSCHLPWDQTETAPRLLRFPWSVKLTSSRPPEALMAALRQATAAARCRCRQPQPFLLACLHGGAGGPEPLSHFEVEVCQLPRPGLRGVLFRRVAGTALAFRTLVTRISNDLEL

[8] = target: Myosin light chain kinase, smooth muscle (Homo sapiens, UniProt Q15746); assay: Selectivity interaction (ActivX KiNativ screen (ex vivo kinase selectivity in human PBMCs)) EUB0001619a MYLK; format: cell-based; settings: PBMC, at 1 µM
Myosin light chain kinase, smooth muscle, sequence (Q15746 whole entry): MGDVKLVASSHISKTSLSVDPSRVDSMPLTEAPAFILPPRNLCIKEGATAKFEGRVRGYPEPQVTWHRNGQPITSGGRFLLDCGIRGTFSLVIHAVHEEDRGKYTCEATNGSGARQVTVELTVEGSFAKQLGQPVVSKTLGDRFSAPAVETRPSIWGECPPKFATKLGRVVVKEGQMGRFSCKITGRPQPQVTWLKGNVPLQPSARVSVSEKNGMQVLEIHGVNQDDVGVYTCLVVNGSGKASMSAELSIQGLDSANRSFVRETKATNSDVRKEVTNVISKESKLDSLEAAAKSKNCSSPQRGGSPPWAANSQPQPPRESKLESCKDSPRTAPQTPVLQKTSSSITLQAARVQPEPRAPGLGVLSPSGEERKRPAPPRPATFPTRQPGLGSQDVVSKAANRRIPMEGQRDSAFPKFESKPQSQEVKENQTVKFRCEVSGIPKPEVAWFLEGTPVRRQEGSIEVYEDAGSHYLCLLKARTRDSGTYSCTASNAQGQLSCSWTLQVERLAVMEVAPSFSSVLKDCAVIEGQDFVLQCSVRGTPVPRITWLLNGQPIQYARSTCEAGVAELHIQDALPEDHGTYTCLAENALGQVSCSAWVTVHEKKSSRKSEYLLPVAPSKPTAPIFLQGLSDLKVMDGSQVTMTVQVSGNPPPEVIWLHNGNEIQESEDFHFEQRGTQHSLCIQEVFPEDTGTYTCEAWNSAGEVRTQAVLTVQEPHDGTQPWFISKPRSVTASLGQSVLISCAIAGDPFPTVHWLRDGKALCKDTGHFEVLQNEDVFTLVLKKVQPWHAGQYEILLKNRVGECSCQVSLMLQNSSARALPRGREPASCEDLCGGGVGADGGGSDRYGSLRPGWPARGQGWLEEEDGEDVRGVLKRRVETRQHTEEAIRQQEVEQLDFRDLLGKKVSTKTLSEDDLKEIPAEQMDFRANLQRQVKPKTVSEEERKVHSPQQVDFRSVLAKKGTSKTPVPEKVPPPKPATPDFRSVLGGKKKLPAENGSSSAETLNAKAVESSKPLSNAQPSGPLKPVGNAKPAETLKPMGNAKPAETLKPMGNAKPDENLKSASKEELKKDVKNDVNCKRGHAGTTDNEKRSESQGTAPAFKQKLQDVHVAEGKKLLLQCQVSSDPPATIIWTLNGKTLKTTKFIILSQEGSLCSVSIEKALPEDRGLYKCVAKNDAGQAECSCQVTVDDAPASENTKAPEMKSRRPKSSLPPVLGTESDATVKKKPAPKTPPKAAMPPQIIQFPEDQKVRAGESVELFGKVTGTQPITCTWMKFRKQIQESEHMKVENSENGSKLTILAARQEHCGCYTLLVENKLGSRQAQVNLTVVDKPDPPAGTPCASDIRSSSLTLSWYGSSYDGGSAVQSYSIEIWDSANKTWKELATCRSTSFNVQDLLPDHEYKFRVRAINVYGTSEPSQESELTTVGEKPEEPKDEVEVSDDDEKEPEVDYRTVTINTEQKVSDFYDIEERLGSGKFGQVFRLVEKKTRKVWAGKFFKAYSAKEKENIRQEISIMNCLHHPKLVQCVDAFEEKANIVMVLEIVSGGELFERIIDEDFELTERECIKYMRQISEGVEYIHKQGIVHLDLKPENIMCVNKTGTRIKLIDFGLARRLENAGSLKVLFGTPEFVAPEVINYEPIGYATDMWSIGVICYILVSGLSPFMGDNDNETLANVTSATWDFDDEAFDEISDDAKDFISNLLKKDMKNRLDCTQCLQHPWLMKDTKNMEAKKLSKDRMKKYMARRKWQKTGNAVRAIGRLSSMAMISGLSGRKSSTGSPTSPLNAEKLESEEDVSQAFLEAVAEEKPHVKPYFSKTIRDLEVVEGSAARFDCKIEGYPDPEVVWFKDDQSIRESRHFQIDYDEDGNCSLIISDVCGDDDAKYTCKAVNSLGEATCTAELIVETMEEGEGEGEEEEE

Proto-oncogene tyrosine-protein kinase receptor Ret (Homo sapiens), P07949 [G691S], sequence (P07949 whole entry G691S): as the sequence (P07949 whole entry M918T) above, with G691S, T918M counted along it

% of inhibition [1]: -30.5%
% of inhibition [2]: -33.9%
% of inhibition [3]: -50.1%
SMILES: Cn1cc(-n2cnc3c(NCc4nc5cc(Cl)c(Cl)cc5[nH]4)nc(N4CCOCC4)nc32)cn1

SMILES: O=C(NOC[C@H](O)CO)c1ccc(F)c(F)c1Nc1ccc(I)cc1F
% of control [4]: 100%

% of inhibition [5]: 1.4%
SMILES: CC[C@@H]1[C@H](F)C(=O)N[C@@H]1COc1nccc2cc(C(N)=O)c(OC)cc12 [ZIMLOVISERTIB]

SMILES: CN(C)CCOc1ccc(-c2nc(-c3ccncc3)c(-c3ccc4c(c3)CC/C4=N\O)[nH]2)cc1
% of control [6]: 98%

SMILES: Cc1cc([C@@H](C)Nc2ccccc2C(=O)O)c2nc(N3CCOCC3)cc(=O)n2c1 [AZD-6482]
% of control [7]: 100%

SMILES: N#Cc1cccc(-c2c[nH]c3ncnc(N4CCOCC4)c23)c1
% of inhibition [8]: 13%
